The record followed here is US12209087B2, “AKT1 modulators” (Alterome Therapeutics, Inc., priority 2022, dated 2025).

Structures are written as SMILES.

In one assay the target is T1, full length AKT E17K (Homo sapiens, UniProt P31749, E17K).
T1 construct: host or cells: HEK-293 (ATCC CRL-1573)
T1 sequence (P31749 whole entry E17K): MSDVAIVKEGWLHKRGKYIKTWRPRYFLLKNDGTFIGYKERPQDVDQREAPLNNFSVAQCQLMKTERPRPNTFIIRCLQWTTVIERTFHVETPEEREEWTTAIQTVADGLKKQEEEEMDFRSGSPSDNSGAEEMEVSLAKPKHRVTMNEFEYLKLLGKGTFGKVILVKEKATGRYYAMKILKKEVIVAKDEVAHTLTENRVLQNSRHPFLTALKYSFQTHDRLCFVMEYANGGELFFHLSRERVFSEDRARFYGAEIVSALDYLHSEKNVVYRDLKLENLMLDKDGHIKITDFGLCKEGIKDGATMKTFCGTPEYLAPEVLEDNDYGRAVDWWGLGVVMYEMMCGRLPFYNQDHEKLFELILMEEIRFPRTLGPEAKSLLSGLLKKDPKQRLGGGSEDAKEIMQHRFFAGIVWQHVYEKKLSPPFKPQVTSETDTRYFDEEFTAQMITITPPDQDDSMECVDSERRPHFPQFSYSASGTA
Nature of the assay: NanoBRET Target Engagement (TE) Assay. In kind it is cell-based. The note with it: competitive displacement of tracer in cells, read-out: AKT1 E17K IC50. In short, it runs like this:
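Compound and tracer incubated 2 h before luminescence at donor 450 nm and acceptor 600 nm, with extracellular signal inhibited. EC50 by sigmoidal variable-slope regression.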
One may read the IC50 as the concentration that gives 50% inhibition. `N#Cc1ccnc(N2CCN(Cc3ccc(-n4c(-c5cccnc5N)nc5ccc(-c6ccc(Cl)cc6)nc54)cc3)CC2)n1` [Example 343, 2-(4-(4-(2-(2-Aminopyridin-3-yl)-5-(4-chlorophenyl)-3H-imidazo[4,5-b]pyridin-3-yl)benzyl)piperazin-1-yl)pyrimidine-4-carbonitrile]: the IC50 was in the range of 60 to 600 nM.

Regarding `[2H]C([2H])(c1ccc(-n2c(-c3cccnc3N)nc3ccc(Br)nc32)cc1)N1CCC(Nc2ccnc(C#N)n2)CC1` [Example 486, 4-((1-((4-(2-(2-Aminopyridin-3-yl)-5-bromo-3H-imidazo[4,5-b]pyridin-3-yl)phenyl)methyl-d2)piperidin-4-yl)amino)pyrimidine-2-carbonitrile], the IC50 is less than 15 nM. Same read-out and setting: with `N#Cc1nccc(NC2CCN(Cc3ccc(-n4c(-c5cccnc5N)nc5ccc(-c6ccc(=O)n(C(F)F)c6)nc54)cc3)CC2)n1` [Example 617, 4-((1-(4-(2-(2-Aminopyridin-3-yl)-5-(1-(difluoromethyl)-6-oxo-1,6-dihydropyridin-3-yl)-3H-imidazo[4,5-b]pyridin-3-yl)benzyl)piperidin-4-yl)amino)pyrimidine-2-carbonitrile] the figure was 15 to 60 nM. The same measure, in the same setting: then `N#Cc1cnc2c(c1)nc(-c1cccnc1N)n2-c1ccc(CN2CCC(Nc3ccnc(C#N)n3)CC2)cc1` [Example 411, 2-(2-Aminopyridin-3-yl)-3-(4-((4-((2-cyanopyrimidin-4-yl)amino)piperidin-1-yl)methyl)phenyl)-3H-imidazo[4,5-b]pyridine-6-carbonitrile], with 15 to 60 nM.

For `CC(C)Oc1ccc(-c2ccc3nc(-c4cccnc4N)n(-c4ccc(CN5CCC(Nc6ccnc(C#N)n6)CC5)cc4)c3n2)cn1` [Example 642, 4-((1-(4-(2-(2-Aminopyridin-3-yl)-5-(6-isopropoxypyridin-3-yl)-3H-imidazo[4,5-b]pyridin-3-yl)benzyl)piperidin-4-yl)amino)pyrimidine-2-carbonitrile], the IC50 was less than 15 nM. The same measure, in the same setting: then `N#Cc1nccc(NC2CCN(Cc3ccc(-n4c(-c5cccnc5N)nc5ccc(-c6ccc(OC7CC7)nc6)nc54)cc3)CC2)n1` [Example 641, 4-((1-(4-(2-(2-Aminopyridin-3-yl)-5-(6-cyclopropoxypyridin-3-yl)-3H-imidazo[4,5-b]pyridin-3-yl)benzyl)piperidin-4-yl)amino)pyrimidine-2-carbonitrile], with less than 15 nM. On the same count and under the same terms, then `N#Cc1nccc(NC2CCN(Cc3ccc(-n4c(-c5cccnc5N)nc5ccc(-n6nccn6)nc54)cc3)CC2)n1` [Example 592, 4-((1-(4-(2-(2-Aminopyridin-3-yl)-5-(2H-1,2,3-triazol-2-yl)-3H-imidazo[4,5-b]pyridin-3-yl)benzyl)piperidin-4-yl)amino)pyrimidine-2-carbonitrile], with less than 15 nM; and `CCc1ccc(-c2ccc3nc(-c4cccnc4N)n(-c4ccc(CN5CCC(Nc6ccnc(C#N)n6)CC5)cc4)c3n2)nc1` [Example 647, 4-((1-(4-(2-(2-Aminopyridin-3-yl)-5-(5-ethylpyridin-2-yl)-3H-imidazo[4,5-b]pyridin-3-yl)benzyl)piperidin-4-yl)amino)pyrimidine-2-carbonitrile], with less than 15 nM. As to `N#Cc1ccnc(N2CCN(Cc3ccc(-n4c(-c5cccnc5N)nc5ccc(-c6ccccc6C#N)nc54)cc3)CC2)n1` [Example 322, 2-(4-(4-(2-(2-Aminopyridin-3-yl)-5-(2-cyanophenyl)-3H-imidazo[4,5-b]pyridin-3-yl)benzyl)piperazin-1-yl)pyrimidine-4-carbonitrile], the IC50 was in the range of 15 to 60 nM. On the same count and under the same terms, then `N#Cc1nccc(NC2CCN(Cc3ccc(-n4c(-c5cccnc5N)nc5ccc(-c6ccc(F)cn6)cc54)cc3)CC2)n1` [Example 602, 4-((1-(4-(2-(2-Aminopyridin-3-yl)-6-(5-fluoropyridin-2-yl)-1H-benzo[d]imidazol-1-yl)benzyl)piperidin-4-yl)amino)pyrimidine-2-carbonitrile], with less than 15 nM. On the same count and under the same terms, with `Cc1ncoc1-c1ccc2nc(-c3cccnc3N)n(-c3ccc(CN4CCC(Nc5ccnc(C#N)n5)CC4)cc3)c2n1` [Example 554, 4-((1-(4-(2-(2-Aminopyridin-3-yl)-5-(4-methyloxazol-5-yl)-3H-imidazo[4,5-b]pyridin-3-yl)benzyl)piperidin-4-yl)amino)pyrimidine-2-carbonitrile] the figure was less than 15 nM; with `N#Cc1nccc(NC2CCN(Cc3ccc(-n4c(-c5nccnc5N)nc5ccc(-c6ccc(F)cn6)nc54)cc3)CC2)n1` [Example 574, 4-((1-(4-(2-(3-Aminopyrazin-2-yl)-5-(5-fluoropyridin-2-yl)-3H-imidazo[4,5-b]pyridin-3-yl)benzyl)piperidin-4-yl)amino)pyrimidine-2-carbonitrile], less than 15 nM; with `Cc1ccccc1-c1ccc2nc(-c3cccnc3N)n(-c3ccc(CN4CCC(Nc5ccnc(C#N)n5)CC4)cc3)c2n1` [Example 527, 4-((1-(4-(2-(2-Aminopyridin-3-yl)-5-(o-tolyl)-3H-imidazo[4,5-b]pyridin-3-yl)benzyl)piperidin-4-yl)amino)pyrimidine-2-carbonitrile], less than 15 nM. On the same count and under the same terms, then `N#Cc1nccc(NC2CCN(Cc3ccc(-n4c(-c5cccnc5N)nc5ccc(-c6ccc(OC(F)F)nc6)nc54)cc3)CC2)n1` [Example 542, 4-((1-(4-(2-(2-Aminopyridin-3-yl)-5-(6-(difluoromethoxy)pyridin-3-yl)-3H-imidazo[4,5-b]pyridin-3-yl)benzyl)piperidin-4-yl)amino)pyrimidine-2-carbonitrile], with less than 15 nM; and `N#Cc1nccc(NC2CCN(Cc3ccc(-n4c(-c5cccnc5N)nc5nc(C#N)c(C#N)nc54)cc3)CC2)n1` [Example 556, 2-(2-Aminopyridin-3-yl)-1-(4-((4-((2-cyanopyrimidin-4-yl)amino)piperidin-1-yl)methyl)phenyl)-1H-imidazo[4,5-b]pyrazine-5,6-dicarbonitrile], with 600 to 10000 nM.

The assay is the same for the next values; noted with them: competitive tracer displacement in living cells, read-out: AKT1 E17K IC50.
As for `N#Cc1cnnc(N2CCN(Cc3ccc(-n4c(-c5cccnc5N)nc5ccc(-c6ccccc6)nc54)cc3)CC2)c1` [Example 53, 6-(4-(4-(2-(2-Aminopyridin-3-yl)-5-phenyl-3H-imidazo[4,5-b]pyridin-3-yl)benzyl)piperazin-1-yl)pyridazine-4-carbonitrile], the IC50 was 60 to 600 nM. The same measure, in the same setting: then `N#Cc1cnnc(NCc2ccc(-n3c(-c4cccnc4N)nc4cccnc43)cc2)c1` [Example 50, 6-((4-(2-(2-Aminopyridin-3-yl)-3H-imidazo[4,5-b]pyridin-3-yl)benzyl)amino)pyridazine-4-carbonitrile], with 600 to 10000 nM; and `N#Cc1nccc(NC2CCN(Cc3ccc(-n4c(-c5cccnc5N)nc5ccc(-c6ccc(=O)[nH]c6)nc54)cc3)CC2)n1` [Example 266, 4-((1-(4-(2-(2-Aminopyridin-3-yl)-5-(6-oxo-1,6-dihydropyridin-3-yl)-3H-imidazo[4,5-b]pyridin-3-yl)benzyl)piperidin-4-yl)amino)pyrimidine-2-carbonitrile], with 60 to 600 nM. Same read-out and setting: with `N#Cc1cccnc1C(=O)N1CCN(Cc2ccc(-n3c(-c4cccnc4N)nc4cccnc43)cc2)CC1` [Example 110, 2-(4-(4-(2-(2-Aminopyridin-3-yl)-3H-imidazo[4,5-b]pyridin-3-yl)benzyl)piperazine-1-carbonyl)nicotinonitrile] the figure was 600 to 10000 nM; with `N#Cc1ncnc(N2C3CCC2CN(Cc2ccc(-n4c(-c5cccnc5N)nc5ccc(-c6ccccc6)nc54)cc2)C3)n1` [Example 270, 4-(3-(4-(2-(2-Aminopyridin-3-yl)-5-phenyl-3H-imidazo[4,5-b]pyridin-3-yl)benzyl)-3,8-diazabicyclo[3.2.1]octan-8-yl)-1,3,5-triazine-2-carbonitrile], 60 to 600 nM; with `N#Cc1ncnc(N2CCC3(CCN(Cc4ccc(-n5c(-c6cccnc6N)nc6ccc(-c7ccccc7)nc65)cc4)C3)CC2)n1` [Example 252, 4-(2-(4-(2-(2-Aminopyridin-3-yl)-5-phenyl-3H-imidazo[4,5-b]pyridin-3-yl)benzyl)-2,8-diazaspiro[4.5]decan-8-yl)-1,3,5-triazine-2-carbonitrile], 15 to 60 nM.

Turning to `N#Cc1ccc(OC2CCN(Cc3ccc(-n4c(-c5cccnc5N)nc5cccnc54)cc3)CC2)nc1` [Example 1, 6-((1-(4-(2-(2-Aminopyridin-3-yl)-3H-imidazo[4,5-b]pyridin-3-yl)benzyl)piperidin-4-yl)oxy)nicotinonitrile], the IC50 fell in the range of 600 to 10000 nM.

For the compound `N#Cc1cccc(NC2CCN(Cc3ccc(-n4c(-c5cccnc5N)nc5ccc(-c6ccccc6)nc54)cc3)CC2)n1` [Example 86, 6-((1-(4-(2-(2-Aminopyridin-3-yl)-5-phenyl-3H-imidazo[4,5-b]pyridin-3-yl)benzyl)piperidin-4-yl)amino)picolinonitrile], the half-maximal inhibitory concentration (IC50) lay within 60 to 600 nM.

On to `N#Cc1ncnc(N2CC[C@]3(CCN(Cc4ccc(-n5c(-c6cccnc6N)nc6ccc(-c7ccccc7)nc65)cc4)C3)C2)n1` [Example 269, (S)-4-(7-(4-(2-(2-Aminopyridin-3-yl)-5-phenyl-3H-imidazo[4,5-b]pyridin-3-yl)benzyl)-2,7-diazaspiro[4.4]nonan-2-yl)-1,3,5-triazine-2-carbonitrile], for which the half-maximal inhibitory concentration (IC50) is less than 15 nM. Same read-out and setting: with `N#Cc1nc(C(=O)NCc2ccc(-n3c(-c4cccnc4N)nc4cccnc43)cc2)cs1` [Example 244, N-(4-(2-(2-Aminopyridin-3-yl)-3H-imidazo[4,5-b]pyridin-3-yl)benzyl)-2-cyanothiazole-4-carboxamide] the figure was 600 to 10000 nM; with `N#Cc1cncc(NC2CCN(Cc3ccc(-n4c(-c5cccnc5N)nc5cccnc54)cc3)CC2)n1` [Example 76, 6-((1-(4-(2-(2-Aminopyridin-3-yl)-3H-imidazo[4,5-b]pyridin-3-yl)benzyl)piperidin-4-yl)amino)pyrazine-2-carbonitrile], 600 to 10000 nM; with `N#Cc1ccnc(NC2C3CCC2CN(Cc2ccc(-n4c(-c5cccnc5N)nc5ccc(-c6ccccc6)nc54)cc2)C3)n1` (stereo not drawn) [Example 231, 2-((3-(4-(2-(2-Aminopyridin-3-yl)-5-phenyl-3H-imidazo[4,5-b]pyridin-3-yl)benzyl)-3-azabicyclo[3.2.1]octan-8-yl)amino)pyrimidine-4-carbonitrile], 600 to 10000 nM.
